Target: T1, FAST (Halorhodospira halophila, UniProt P16113, C69G/Y94W/T95M/F96I/D97P/Y98T/Q99S/M100R/T101G)
T1 construct: gene pyp; C-terminal His6 tag in NMR structure
T1 sequence (P16113 1-125 C69G/Y94W/T95M/F96I/D97P/Y98T/Q99S/M100R/T101G): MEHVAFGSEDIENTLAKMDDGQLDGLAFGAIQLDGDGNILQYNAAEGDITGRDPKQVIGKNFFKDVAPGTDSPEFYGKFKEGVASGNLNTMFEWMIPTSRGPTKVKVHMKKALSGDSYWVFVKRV
Assay: solution NMR structure of the complex
Format: binding
Conditions: pH 7.0, 25 °C (1H NMR spectra); 13C/15N-labelled protein

Structure (SMILES): COc1cc(O)ccc1/C=C1N=C(/C=C/c2ccncc2)N(C)C\1=O [N871b]
- solution NMR structure of the complex: solved the spatial structure of the protein in complex with a promising ligand N871b
